Test results taken from patent publication EP2030621A1, “Novel substituted pyrimidines as cysteine protease inhibitors” (GLAXO GROUP LIMITED, priority 2007, dated 2009).
Where a name gives a salt, the structure may show the parent alone.

Key:
Falcipain-2 = Falcipain-2 (Plasmodium falciparum, UniProt Q8I6U4); assay: Falcipain-2 enzymatic assay (fluorogenic peptide substrate, quenched endpoint read); assay type: biochemical; conditions: parasitic recombinant enzyme, 30 uM H-D-VLR-AFC, pH 5.5, quenched after 60 minutes; read-out: Falcipain-2 (IC50)
Experimental: (§1) 1 Determination of Falcipain-2, Falcipain-3, Vivapain-2, Cathepsin K Cathepsin S, Cathepsin L, and Cathepsin B proteolytic catalytic activity
(§2) Assays for Falcipain-2, Faicipain-3, and Vivapain-2 are carried out with parasitic recombinant enzymes. Cathepsins K, S, L, and B are carried out with human recombinant enzymes. Standard assay conditions for the determination of kinetic constants used a fluorogenic peptide substrate, typically H-D-VLR-AFC (Falcipain-2, Falcipain-3, Vivapain-2), Z-FR-AFC (Cathepsin K, L, B), or KQKLR-AMC (Cathepsin S) and are determined in 100 mM sodium acetate, pH 5.5, containing 10 mM DTT and 0.5 mM CHAPS (Falcipain-2, Falcipain-3, Vivapain-2), and 100 mM sodium acetate, pH 5.5, containing 5 mM L-cysteine, 1mM CHAPS and 5mM EDTA (Cathepsin K, L, B), or 50mM MES, pH 6.5, containing 0.5mM CHAPS, 10mM L-CYS, 5mM EDTA (Cathepsin S). Stock substrate solutions are prepared at 20 mM in DMSO. The activity assays contained 30 uM substrate (Falcipain-2, Falcipain-3, Vivapain-2), 20 uM substrate (Cathepsin K), 25uM substrate (Cathepsin B), 5uM substrate (Cathepsin L), and 30uM substrate (Cathepsin S). All assays contained 1% DMSO. […] All assays are conducted at ambient temperature as end point assays being quenched after 60 minutes with the exception of Cathepsin S at 90 minutes, with 16.6 uM E-64 in 1% DMSO. Product formation (AFC or AMC) is determined from fluorescence (excitation at 405nm; emission at 530nm, AFC, or excitation at 360 nm; emission at 460 nm, AMC) monitored with a LJL Aquest (Molecular Devices) fluorescent plate reader. In the case of kinetic reads (used in mechanism of action studies), the reaction is not quenched but is read in the plate reader every 3 minutes for approximately 90 minutes. In addition, the mechanism of action studies for Falcipain-2 utilize Z-LR-AMC as the substrate. Product formation is determined from the fluorescence of AMC, measured with a LJL Acquest (Molecular Devices) fluorescent plate reader (excitation at 360nm; emission at 460nm).
(§3) Potential inhibitors are evaluated using the quenched read (endpoint) method. Assays are carried out in the presence of variable concentrations of test compound. Reactions are initiated by addition of enzyme and substrate to wells containing inhibitor stamped in 100% DMSO. For endpoint assays, the reaction is quenched with the addition of E64. Dose response data is fit to an IC50 curve with preset fitting tools according to equation 1: y = a + (b-a)/(1 + (10^x /10^c ())^d ) [formula] where y is the response at a particular inhibitor concentration x, a is the minimum response value, b is the maximum response value, c is the IC50, and d is the slope of the IC50 curve. […]. For a more direct measurement of the KI and the binding mechanism, we performed mechanism of action studies that included a titration of substrate and inhibitor with a kinetic read. […]

Falcipain-3 = Falcipain-3 (Plasmodium falciparum, UniProt Q8IIL0); assay: Falcipain-3 enzymatic assay (fluorogenic peptide substrate, quenched endpoint read); assay type: biochemical; conditions: parasitic recombinant enzyme, 30 uM H-D-VLR-AFC, pH 5.5, quenched after 60 minutes; read-out: Falcipain-3 (IC50)
Experimental: as §1, §2, §3

[1] = system: Plasmodium falciparum parasite; assay: Whole cell assay: whole cell activity against the parasite; assay type: cell-based; conditions: Plasmodium falciparum

Sequence of Falcipain-2 (Q8I6U4 244-484): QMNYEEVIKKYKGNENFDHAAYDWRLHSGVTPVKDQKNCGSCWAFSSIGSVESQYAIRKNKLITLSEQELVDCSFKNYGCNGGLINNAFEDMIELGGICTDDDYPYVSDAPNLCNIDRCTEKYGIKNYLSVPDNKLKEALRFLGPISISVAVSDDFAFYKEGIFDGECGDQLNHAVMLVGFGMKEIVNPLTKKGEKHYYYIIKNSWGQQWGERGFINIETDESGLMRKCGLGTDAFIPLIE
Sequence of Falcipain-3 (Q8IIL0 243-492): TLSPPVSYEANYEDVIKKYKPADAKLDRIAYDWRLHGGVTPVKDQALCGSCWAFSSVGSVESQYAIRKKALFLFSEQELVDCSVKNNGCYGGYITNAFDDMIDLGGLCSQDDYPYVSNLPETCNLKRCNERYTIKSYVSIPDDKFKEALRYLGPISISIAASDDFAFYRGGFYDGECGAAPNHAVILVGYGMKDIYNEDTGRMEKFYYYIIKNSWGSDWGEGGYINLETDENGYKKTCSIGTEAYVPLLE

## CC(=O)N1CCC(N(NC(=O)c2ccc(CN3CCN(C)CC3)cc2)c2nc(C#N)ncc2Br)CC1 [Example 37, N'-(1-acetyl-4-piperidinyl)-N'-(5-bromo-2-cyano-4-pyrimidinyl)-4-[(4-methyl-1-piperazinyl)methyl]benzohydrazide trifluoroacetate]
Falcipain-2
  IC50: < 1 nM
Falcipain-3
  IC50: 15 to 150 nM
[1]
  IC50: 15 to 150 nM

## CC(C)CCN(C)Cc1ccc(C(=O)NN(c2nc(C#N)ncc2Cl)C2CCCC2)cc1 [Example 63, N'-(5-chloro-2-cyano-4-pyrimidinyl)-N'-cyclopentyl-4-{[methyl(3-methylbutyl)amino]methyl}benzohydrazide trifluoroacetate]
Falcipain-2
  IC50: < 1 nM
Falcipain-3
  IC50: 2.5 to 15 nM
[1]
  IC50: 2.5 to 15 nM
